In patent publication US7256187B2, “Rifamycin C-11 oxime derivatives effective against drug-resistant microbes” (Cumbre Pharmaceuticals Inc., priority 2004, dated 2007):
Values after ≈ are worked out from the molar mass of the structure shown.

What was measured:
Type in all cases: cell-based
[1] = test system: Staphylococcus aureus ATCC29213 rpoB^D417Y; assay: microbe, parasite or virus in culture; settings: Staphylococcus aureus ATCC29213 rpoB^D417Y, rifR; read-out: Antimicrobial activity (MIC)
Experimental: (§1) Representative compounds were assayed for antimicrobial activity as follows: Minimum Inhibitory Concentrations (“MICs”) were determined by the microbroth dilution method as per NCCLS guidelines (National Committee for Clinical Laboratory Standards. 2000. Methods for dilution antimicrobial susceptibility tests for bacteria that grow aerobically, 5th ed. M7-A5. National Committee for Clinical Laboratory Standards, Wayne, Pa.), except that all growth incubations were conducted at 37° C. Bacterial cultures were tested in the following bacteriological media: S. aureus, S. epidermidis, and E. coli in Cation-Adjusted Mueller-Hinton Broth, S. pneumoniae in THY Broth supplemented with 1 mg/mL catalase under 5% CO2 atmosphere, S. pyogenes in THY Broth, E. faecalis in BHI Broth, H. influenzae in BHI Broth supplemented with 0.75 μL of 1 mg/mL NAD and 150 μL of 1 mg/ml hematin per 5 mL, and M. smegmatis in Middlebrook Broth plus ADC Enrichment.
(§2) S. aureus ATCC 29213 RpoB^H418Y is a rifampin-resistant strain with a mutation in the RpoB gene of RNA polymerase. […] S. aureus EN1252a gyrA^S84L grlA^S80F is a quinolone-resistant strain due to double gene mutations of DNA gyrase and topoisomerase IV.

[2] = test system: Staphylococcus aureus ATCC29213 rpoB^H418Y; assay: microbe, parasite or virus in culture; settings: Staphylococcus aureus ATCC29213 rpoB^H418Y, rifR; read-out: Antimicrobial activity (MIC)
Experimental: as §1, §2

[3] = test system: Staphylococcus aureus EN1252a gyrA^S84L grlA^S80F; assay: microbe, parasite or virus in culture; settings: Staphylococcus aureus EN1252a gyrA^S84L grlA^S80F, cipR; read-out: Antimicrobial activity (MIC)
Experimental: as §1, §2

[4] = test system: Staphylococcus aureus ATCC29213; assay: MIC, microbroth dilution; settings: Staphylococcus aureus ATCC29213, rifS; read-out: Antimicrobial activity (MIC)
[5] = test system: Escherichia coli ATCC25922; assay: MIC, microbroth dilution; settings: Escherichia coli ATCC25922, rifS; read-out: Antimicrobial activity (MIC)
[6] = test system: Haemophilus influenzae ATCC10211; assay: MIC, microbroth dilution; settings: Haemophilus influenzae ATCC10211, rifS; read-out: Antimicrobial activity (MIC)
[7] = test system: Mycobacterium smegmatis ATCC700084; assay: MIC, microbroth dilution; settings: Mycolicibacterium smegmatis; Mycobacterium smegmatis ATCC700084, rifS; read-out: Antimicrobial activity (MIC)
[8] = test system: Enterococcus faecalis ATCC29212; assay: MIC, microbroth dilution; settings: Enterococcus faecalis ATCC29212, rifS; read-out: Antimicrobial activity (MIC)
[9] = test system: Staphylococcus epidermidis ATCC12228; assay: MIC, microbroth dilution; settings: Staphylococcus epidermidis ATCC12228, rifS; read-out: Antimicrobial activity (MIC)
[10] = test system: Streptococcus pyogenes ATCC19615; assay: MIC, microbroth dilution; settings: Streptococcus pyogenes ATCC19615, rifS; read-out: Antimicrobial activity (MIC)
[11] = test system: Streptococcus pneumoniae ATCC6303; assay: MIC, microbroth dilution; settings: Streptococcus pneumoniae ATCC6303, rifS; read-out: Antimicrobial activity (MIC)

Structure (SMILES)	MIC [1] [µg/mL]	MIC [2] [µg/mL]	MIC [3] [µg/mL]	MIC [4] [µg/mL]	MIC [5] [µg/mL]	MIC [6] [µg/mL]	MIC [7] [µg/mL]	MIC [8] [µg/mL]	MIC [9] [µg/mL]	MIC [10] [µg/mL]	MIC [11] [µg/mL]
COc1c(N2CCN(/N=C/c3c4c(O)c5c(O)c(C)c6c(c5c3O)/C(=N/O)[C@@](C)(O/C=C/[C@H](OC)[C@@H](C)[C@@H](OC(C)=O)[C@H](C)[C@H](O)[C@H](C)[C@@H](O)[C@@H](C)/C=C/C=C(/C)C(=O)N4)O6)C(C)C2)c(F)cc2c(=O)c(C(=O)O)cn(C3CC3)c12 (mixture of isomers) [Example 40, (R/S)-3-[4-(3-Carboxy-1-cyclopropyl-6-fluoro-8-methoxy-4-oxo-1,4-dihydroquinolin-7-yl)-2-methyl-piperazin-1-yl-aminomethylenyl]-11-deoxy-11-hydroxyiminorifamycin SV]	0.25 to 32 (≈ 0.225 to 28.7 µM)	0.125 to 16 (≈ 0.112 to 14.4 µM)	0.004 to 0.5 (≈ 0.00359 to 0.449 µM)	0.004 to 0.5 (≈ 0.00359 to 0.449 µM)	0.125 to 8 (≈ 0.112 to 7.19 µM)	0.03 to 2 (≈ 0.0269 to 1.8 µM)	0.5 to 64 (≈ 0.449 to 57.5 µM)	2 to 32 (≈ 1.8 to 28.7 µM)	0.0005 to 0.063 (≈ 0.000449 to 0.0566 µM)	0.0005 to 0.063 (≈ 0.000449 to 0.0566 µM)	0.0002 to 0.125 (≈ 0.00018 to 0.112 µM)
CO[C@H]1/C=C/O[C@@]2(C)Oc3c(C)c(O)c4c(c3/C2=N/O)/C(=N/O)C=C(NC(=O)/C(C)=C\C=C\[C@H](C)[C@H](O)[C@@H](C)[C@@H](O)[C@@H](C)[C@H](OC(C)=O)[C@@H]1C)C4=O [Example 4, 4, 11-Dideoxy-4,11-dihydroxyiminorifamycin S]	0.25 to 32 (≈ 0.344 to 44.1 µM)	0.125 to 16 (≈ 0.172 to 22 µM)	0.004 to 0.5 (≈ 0.00551 to 0.689 µM)	0.004 to 0.5 (≈ 0.00551 to 0.689 µM)	0.125 to 8 (≈ 0.172 to 11 µM)	0.03 to 2 (≈ 0.0413 to 2.76 µM)	0.5 to 64 (≈ 0.689 to 88.2 µM)	2 to 32 (≈ 2.76 to 44.1 µM)	0.0005 to 0.063 (≈ 0.000689 to 0.0868 µM)	0.0005 to 0.063 (≈ 0.000689 to 0.0868 µM)	0.0002 to 0.125 (≈ 0.000276 to 0.172 µM)
CO/N=C1/c2c3c(C)c(O)c4c2/C(=N/OC)C=C(NC(=O)/C(C)=C\C=C\[C@H](C)[C@H](O)[C@@H](C)[C@@H](O)[C@@H](C)[C@H](OC(C)=O)[C@H](C)[C@@H](OC)/C=C/O[C@@]1(C)O3)C4=O [Example 5, 4, 11-Dideoxy-4, 11-dimethoxyiminorifamycin S]	0.25 to 32 (≈ 0.332 to 42.4 µM)	0.125 to 16 (≈ 0.166 to 21.2 µM)	0.004 to 0.5 (≈ 0.00531 to 0.663 µM)	0.004 to 0.5 (≈ 0.00531 to 0.663 µM)	0.125 to 8 (≈ 0.166 to 10.6 µM)	0.03 to 2 (≈ 0.0398 to 2.65 µM)	0.5 to 64 (≈ 0.663 to 84.9 µM)	2 to 32 (≈ 2.65 to 42.4 µM)	0.0005 to 0.063 (≈ 0.000663 to 0.0836 µM)	0.0005 to 0.063 (≈ 0.000663 to 0.0836 µM)	0.0002 to 0.125 (≈ 0.000265 to 0.166 µM)
CO[C@H]1/C=C/O[C@@]2(C)Oc3c(C)c(O)c4c(c3/C2=N/O)C(=O)C=C(NC(=O)/C(C)=C\C=C\[C@H](C)[C@H](O)[C@@H](C)[C@@H](O)[C@@H](C)[C@H](OC(C)=O)[C@@H]1C)C4=O [Example 7, 11-Deoxy-11-hydroxyiminorifamycin S]	0.25 to 32 (≈ 0.352 to 45 µM)	0.125 to 16 (≈ 0.176 to 22.5 µM)	0.004 to 0.5 (≈ 0.00563 to 0.703 µM)	0.004 to 0.5 (≈ 0.00563 to 0.703 µM)	0.125 to 8 (≈ 0.176 to 11.3 µM)	0.03 to 2 (≈ 0.0422 to 2.81 µM)	0.5 to 64 (≈ 0.703 to 90 µM)	2 to 32 (≈ 2.81 to 45 µM)	0.0005 to 0.063 (≈ 0.000703 to 0.0886 µM)	0.0005 to 0.063 (≈ 0.000703 to 0.0886 µM)	0.0002 to 0.125 (≈ 0.000281 to 0.176 µM)
CO[C@H]1/C=C/O[C@@]2(C)Oc3c(C)c(O)c4c(c3/C2=N/OC(=O)c2ccncc2)C(=O)C=C(NC(=O)/C(C)=C\C=C\[C@H](C)[C@H](O)[C@@H](C)[C@@H](O)[C@@H](C)[C@H](OC(C)=O)[C@@H]1C)C4=O [Example 8, 11-Deoxy-11-(4-pyridylcarboxy)iminorifamycin S]	0.25 to 32 (≈ 0.306 to 39.2 µM)	0.125 to 16 (≈ 0.153 to 19.6 µM)	0.004 to 0.5 (≈ 0.0049 to 0.613 µM)	0.004 to 0.5 (≈ 0.0049 to 0.613 µM)	0.125 to 8 (≈ 0.153 to 9.81 µM)	0.03 to 2 (≈ 0.0368 to 2.45 µM)	0.5 to 64 (≈ 0.613 to 78.4 µM)	2 to 32 (≈ 2.45 to 39.2 µM)	0.0005 to 0.063 (≈ 0.000613 to 0.0772 µM)	0.0005 to 0.063 (≈ 0.000613 to 0.0772 µM)	0.0002 to 0.125 (≈ 0.000245 to 0.153 µM)
CO[C@H]1/C=C/O[C@@]2(C)Oc3c(C)c(O)c4c(c3/C2=N/OC(C)=O)C(=O)C=C(NC(=O)/C(C)=C\C=C\[C@H](C)[C@H](O)[C@@H](C)[C@@H](O)[C@@H](C)[C@H](OC(C)=O)[C@@H]1C)C4=O [Example 9, 11-Deoxy-11-acetoxyiminorifamycin S]	0.25 to 32 (≈ 0.332 to 42.5 µM)	0.125 to 16 (≈ 0.166 to 21.3 µM)	0.004 to 0.5 (≈ 0.00531 to 0.664 µM)	0.004 to 0.5 (≈ 0.00531 to 0.664 µM)	0.125 to 8 (≈ 0.166 to 10.6 µM)	0.03 to 2 (≈ 0.0399 to 2.66 µM)	0.5 to 64 (≈ 0.664 to 85 µM)	2 to 32 (≈ 2.66 to 42.5 µM)	0.0005 to 0.063 (≈ 0.000664 to 0.0837 µM)	0.0005 to 0.063 (≈ 0.000664 to 0.0837 µM)	0.0002 to 0.125 (≈ 0.000266 to 0.166 µM)
